From patent publication US4699910A, “N-(3-trifluoromethyl-phenyl)-N'-propargyl-piperazine and salts thereof useful as analgesics” (Boehringer Ingelheim KG, priority 1983, dated 1987)

Columns and labels:
Format in all cases: in vivo
[1] = Writhing test (analgesia)
Rabbit's tooth pulp = Rabbit's tooth pulp test (analgesia); conditions: s.c.
Text: 3. Rabbit's tooth pulp test
Hoffmeister, F., Arzneimittelf. 16 (supplement), 1968.

Gait test (analgesia) = conditions: sc
Text: Atkinson, D. C., and Cowan, A. J., Pharm. Pharmacol. 26, 727-728 (1974)

[2] = po, read-out: Writhing test ED50 p.o.
[3] = sc, read-out: Writhing test ED50 s.c.

Row | Compound | ED50 [1, 2] | ED50 [1, 3] | Rabbit's tooth pulp test EDIV (Rabbit's tooth pulp) | ED50 (Gait test (analgesia))
1 | Cc1c(N(C)CS(=O)(=O)O)c(=O)n(-c2ccccc2)n1C [Metamizole-sodium (Novalgin ®)] | 80 mg/kg | 25 mg/kg | approx. 560 | 97 mg/kg
2 | C#CCN1CCN(c2cccc(C(F)(F)F)c2)CC1.Cl [N-(3-Trifluoromethyl-phenyl)-N'-propargyl-piperazine hydrochloride] | 43 mg/kg | 5.3 mg/kg | approx. 10 | 2.8 mg/kg
